Test results taken from ChEMBL document CHEMBL1201862, “PubChem BioAssay data set” (2004).
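Interpolation was linear, between the two tested concentrations surrounding the appropriate level; five concentrations were tested over 48 hours in 96-well plates. GI50 = concentration required for 50% inhibition of growth.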 Active and inactive are the calls of the source. Cut-off read from the data, not from the text of the source: active = GI50 up to about 1.1 µM and inactive = higher.

What was measured:
Assay in all cases: NCI anticancer screen, dose series, 48 h
786-0 = system: 786-0
A498 = system: A498
A549 = system: A549
ACHN = system: ACHN
BT-549 = system: BT-549
CAKI-1 = system: CAKI-1
CCRF-CEM = system: CCRF-CEM
COLO 205 = system: COLO 205
DU-145 = system: DU-145
EKVX = system: EKVX
HCC 2998 = system: HCC 2998
HCT-116 = system: HCT-116
HCT-15 = system: HCT-15
HL-60 = system: HL-60
HOP-62 = system: HOP-62
HOP-92 = system: HOP-92
HT-29 = system: HT-29
Hs-578T = system: Hs-578T
IGROV-1 = system: IGROV-1
K562 = system: K562
KM12 = system: KM12
LOX IMVI = system: LOX IMVI
M14 = system: M14
MCF7 = system: MCF7
MDA-MB-231 = system: MDA-MB-231
MDA-MB-435 = system: MDA-MB-435
MDA-N = system: MDA-N
MOLT-4 = system: MOLT-4
Malme-3M = system: Malme-3M
NCI-H226 = system: NCI-H226
NCI-H23 = system: NCI-H23
NCI-H460 = system: NCI-H460
NCI-H522 = system: NCI-H522
NCI/ADR-RES = system: NCI/ADR-RES
OVCAR-3 = system: OVCAR-3
OVCAR-4 = system: OVCAR-4
OVCAR-5 = system: OVCAR-5
OVCAR-8 = system: OVCAR-8
PC-3 = system: PC-3
RPMI-8226 = system: RPMI-8226
RXF 393 = system: RXF 393
SF-268 = system: SF-268
SF-295 = system: SF-295
SK-MEL-28 = system: SK-MEL-28
SK-MEL-2 = system: SK-MEL-2
SK-MEL-5 = system: SK-MEL-5
SK-OV-3 = system: SK-OV-3
SN12C = system: SN12C
SNB-19 = system: SNB-19
SNB-75 = system: SNB-75
SR = system: SR
SW-620 = system: SW-620
T47D = system: T47D
TK-10 = system: TK-10
U-251 = system: U-251
UACC-257 = system: UACC-257
UACC-62 = system: UACC-62
UO-31 = system: UO-31
SF-539 = system: SF-539

With `O=C1C(c2c(O)[nH]c3ccc(Br)cc23)=Nc2ccccc21` the GI50 (786-0) was 2.13 µM (inactive), the GI50 (A498) was 3.3 µM (inactive) and the GI50 (A549) was 4.07 µM (inactive). For the same molecule, the GI50 (ACHN) was 3.06 µM (inactive), the GI50 (BT-549) was 19.5 µM (inactive) and the GI50 (CAKI-1) was 2.65 µM (inactive). The GI50 (CCRF-CEM) was 22.7 µM (inactive), the GI50 (COLO 205) was 5.65 µM (inactive) and the GI50 (DU-145) was 6.81 µM (inactive). The GI50 (EKVX) was 2.93 µM (inactive), the GI50 (HCC 2998) was 3.79 µM (inactive) and the GI50 (HCT-116) was 2.32 µM (inactive). For the same molecule, the GI50 (HCT-15) was 5.41 µM, the GI50 (HL-60) was 96.2 µM (inactive) and the GI50 (HOP-62) was 12.4 µM (inactive). The GI50 (HOP-92) was 16.6 µM (inactive), the GI50 (HT-29) was 4.28 µM (inactive) and the GI50 (Hs-578T) was 12.9 µM (inactive). For the same molecule, the GI50 (IGROV-1) was 0.562 µM (active), the GI50 (K562) was 5.62 µM (inactive) and the GI50 (KM12) was 2.92 µM (inactive). For the same molecule, the GI50 (LOX IMVI) was 8.55 µM (inactive), the GI50 (M14) was 11.3 µM (inactive) and the GI50 (MCF7) was 1.76 µM (inactive). The GI50 (MDA-MB-231) was 15 µM (inactive), the GI50 (MDA-MB-435) was 6.9 µM (inactive) and the GI50 (MDA-N) was 14 µM (inactive). For the same molecule, the GI50 (MOLT-4) was 18.2 µM (inactive), the GI50 (Malme-3M) was 4.91 µM (inactive) and the GI50 (NCI-H226) was 15.1 µM (inactive). For the same molecule, the GI50 (NCI-H23) was 12.4 µM (inactive), the GI50 (NCI-H460) was 12.7 µM (inactive) and the GI50 (NCI-H522) was 14.7 µM (inactive). The GI50 (NCI/ADR-RES) was 17.7 µM (inactive), the GI50 (OVCAR-3) was 10.6 µM (inactive) and the GI50 (OVCAR-4) was 9.04 µM (inactive). For the same molecule, the GI50 (OVCAR-5) was 11.9 µM (inactive), the GI50 (OVCAR-8) was 6.78 µM (inactive) and the GI50 (PC-3) was 5 µM (inactive). For the same molecule, the GI50 (RPMI-8226) was 8.79 µM (inactive), the GI50 (RXF 393) was 2.39 µM (inactive) and the GI50 (SF-268) was 9.62 µM (inactive). For the same molecule, the GI50 (SF-295) was 15.5 µM (inactive), the GI50 (SK-MEL-28) was 29 µM (inactive) and the GI50 (SK-MEL-2) was 11.9 µM (inactive). For the same molecule, the GI50 (SK-MEL-5) was 4.01 µM (inactive), the GI50 (SK-OV-3) was 13 µM (inactive) and the GI50 (SN12C) was 28 µM (inactive). The GI50 (SNB-19) was 13.2 µM (inactive), the GI50 (SNB-75) was 11.2 µM (inactive) and the GI50 (SR) was 6.73 µM (inactive). For the same molecule, the GI50 (SW-620) was 12.7 µM (inactive), the GI50 (T47D) was 8.63 µM (inactive) and the GI50 (TK-10) was 13.4 µM (inactive). For the same molecule, the GI50 (U-251) was 12.8 µM (inactive), the GI50 (UACC-257) was 24.2 µM (inactive) and the GI50 (UACC-62) was 12.2 µM (inactive). For the same molecule, the GI50 (UO-31) was 2.74 µM (inactive).
For `CC(NC(=O)C(NC(=O)C(NC(=O)C(F)(F)F)C(C)C)C(C)C)C(=O)Oc1c(Cl)c(Cl)c(Cl)c(Cl)c1Cl` (stereo not given), the GI50 (A498) was > 100 µM (inactive), the GI50 (A549) was > 100 µM (inactive) and the GI50 (ACHN) was > 100 µM (inactive). For the same molecule, the GI50 (BT-549) was > 100 µM (inactive), the GI50 (CAKI-1) was > 100 µM (inactive) and the GI50 (CCRF-CEM) was > 100 µM (inactive). For the same molecule, the GI50 (COLO 205) was > 100 µM (inactive), the GI50 (DU-145) was > 100 µM (inactive) and the GI50 (EKVX) was > 100 µM (inactive). For the same molecule, the GI50 (HCC 2998) was > 100 µM (inactive), the GI50 (HCT-116) was > 100 µM (inactive) and the GI50 (HCT-15) was > 100 µM. For the same molecule, the GI50 (HL-60) was > 100 µM (inactive), the GI50 (HOP-62) was > 100 µM (inactive) and the GI50 (HOP-92) was 32.5 µM (inactive). For the same molecule, the GI50 (HT-29) was > 100 µM (inactive), the GI50 (Hs-578T) was > 100 µM (inactive) and the GI50 (IGROV-1) was > 100 µM (inactive). The GI50 (K562) was > 100 µM (inactive), the GI50 (KM12) was > 100 µM (inactive) and the GI50 (LOX IMVI) was > 100 µM (inactive). The GI50 (M14) was > 100 µM (inactive), the GI50 (MCF7) was > 100 µM (inactive) and the GI50 (MDA-MB-231) was > 100 µM (inactive). The GI50 (MDA-MB-435) was > 100 µM (inactive), the GI50 (MDA-N) was > 100 µM (inactive) and the GI50 (MOLT-4) was > 100 µM (inactive). The GI50 (Malme-3M) was > 100 µM (inactive), the GI50 (NCI-H226) was 94.6 µM (inactive) and the GI50 (NCI-H23) was > 100 µM (inactive). The GI50 (NCI-H460) was > 100 µM (inactive), the GI50 (NCI-H522) was 85.5 µM (inactive) and the GI50 (NCI/ADR-RES) was > 100 µM (inactive). The GI50 (OVCAR-3) was 92.5 µM (inactive), the GI50 (OVCAR-4) was > 100 µM (inactive) and the GI50 (OVCAR-5) was > 100 µM (inactive). For the same molecule, the GI50 (OVCAR-8) was > 100 µM (inactive), the GI50 (PC-3) was > 100 µM (inactive) and the GI50 (RPMI-8226) was > 100 µM (inactive). For the same molecule, the GI50 (RXF 393) was > 100 µM (inactive), the GI50 (SF-268) was > 100 µM (inactive) and the GI50 (SF-539) was > 100 µM (inactive). The GI50 (SK-MEL-28) was > 100 µM (inactive), the GI50 (SK-MEL-2) was > 100 µM (inactive) and the GI50 (SK-MEL-5) was > 100 µM (inactive). For the same molecule, the GI50 (SK-OV-3) was > 100 µM (inactive), the GI50 (SN12C) was > 100 µM (inactive) and the GI50 (SNB-19) was > 100 µM (inactive). The GI50 (SNB-75) was > 100 µM (inactive), the GI50 (SR) was > 100 µM (inactive) and the GI50 (SW-620) was > 100 µM (inactive). For the same molecule, the GI50 (T47D) was 83.4 µM (inactive), the GI50 (TK-10) was > 100 µM (inactive) and the GI50 (U-251) was > 100 µM (inactive). For the same molecule, the GI50 (UACC-257) was > 100 µM (inactive), the GI50 (UACC-62) was > 100 µM (inactive) and the GI50 (UO-31) was 86.7 µM (inactive).
